Source: patent US20210171579A1, “INHIBITOR USING PLANT CYCLOPEPTIDE AS EFFECTIVE COMPONENT FOR LIPID METABOLIC ABNORMALITIES IN CANCER CELLS AND USES THEREOF” (CHINA PHARMACEUTICAL UNIVERSITY, priority 2017, published 2021)

Key:
[1] = test system: human liver cancer HepG2 cell line; assay: Indexes related to lipid metabolism in human liver cancer cells (commercial kits); assay type: cell-based; conditions: HepG2, 24 h treatment, FIG. 2
Experimental: (§1) In-vivo antineoplastic activity and activity of inhibiting abnormal lipid metabolism of tumors of the RAs are verified by establishing a nude mouse subcutaneously transplanted tumor model with liver cancer cells.
An overnight human liver cancer HepG2 cell line is cultivated by a 10% FBS medium. Pancreatin is added for digestion to form a cell suspension, which is inoculated onto a 6-well plate according to an appropriate concentration. After 24 h, the RA-V or the RA-XII is added for treatment for 24 h. Digestion is conducted with the pancreatin. Centrifugation is conducted for 5 to 10 min at a room temperature and 2000 rpm, and cells are collected. The cells are resuspended once with pre-cooled 1×PBS (4° C.), centrifuged for 5 to 10 min at 2000 rpm, and washed. By adopting commercial kits, contents of total cholesterol and triglycerides in the cells are detected through a single reagent GPO-PAP method respectively, and contents of low-density lipoproteins and high-density lipoproteins in the cells are detected through a double-reagent direct method (the commercial kits are purchased from the Nanjing Jiancheng Bioengineering Institute, with article numbers of A111-1, A110-1, A113-1 and A112-1 respectively).

[2] = test system: HepG2 subcutaneously transplanted tumors; assay: In-vivo antineoplastic test, nude mouse subcutaneously transplanted tumor model; parameters: species or system BABL/c nude mice; conditions: caudal vein dosing every other day, 21 days, FIG. 4
Experimental: as §1
(§2) HepG2 is diluted into […] with a serum-free MEM. 100 μL of cell suspension is taken and inoculated to left armpits of BABL/c nude mice subcutaneously, and grows for 7 days to form a tumor-bearing mouse model. Inoculated and well-grown tumor-bearing mice are grouped at random, and dosed with the RA-XII once through caudal veins every other day. While dosing, sizes of tumors are measured with a vernier caliper (a tumor volume=a long diameter×a short diameter^2/2), and weights of the nude mice are recorded and counted. The used animals are killed after dosed for 21 days, and tumors are peeled and photographed.

[3] = test system: human liver cancer HepG2 cell line; assay: Growth inhibition of human liver cancer cells, SRB method; assay type: cell-based; conditions: HepG2, 24 h treatment, FIG. 1
Experimental: as §1
Cell viability is determined by adopting an SRB method. An overnight human liver cancer HepG2 cell line (purchased from the Cell Bank of Committee on Type Culture Collection of Chinese Academy of Sciences) is cultivated by a 10% FBS medium. Pancreatin is added for digestion to form a cell suspension, which is inoculated onto a 96-well plate according to an appropriate concentration at 100 μl/well. Cultivation is conducted in a CO2 incubator for 24 h until cells adhere to walls completely. Different final concentrations of RA-XII are added, after acting for 24 h, 50 μl of a 4° C. pre-cooled TCA solution (30%, w/v) is added into each well for fixing of the cells, and a final concentration of the TCA solution is 10%. The 96-well plate is transferred into a 4° C. refrigerator for fixing for 1 h after still standing for 5 min. The 96-well plate is taken out, washed 5 times with deionized water, and aired at a room temperature. […] Optical densities are determined at 540 nm by adopting a microplate reader.

[4] = Weights of nude mice in the in-vivo antineoplastic test; parameters: species or system BABL/c nude mice; conditions: caudal vein dosing every other day, 21 days, FIG. 4
Experimental: as §2

[5] = test system: tissues of HepG2 subcutaneously transplanted tumors; assay: Lipid droplets in tissues of subcutaneously transplanted tumors, Oil Red staining; assay type: in vivo, BABL/c nude mice; conditions: tumor tissues from Embodiment 4, Oil Red staining of cryosections, FIG. 6
Experimental: as §2
Tissues of the tumors obtained in Embodiment 4 are taken and embedded by OCT and then rapidly cooled. Cryostat serial sectioning is conducted with a thickness being 20 μm. Drying is conducted for 30 min at a room temperature. Fixing is conducted with 4% paraformaldehyde for 30 min. Staining is conducted with an Oil Red working solution for about 30 min at the room temperature. Washing is conducted with PBS twice. Sections are sealed with a glycerin jelly. Overnight drying is conducted, and pictures are taken under a microscope.

[6] = test system: human liver cancer HepG2 cell line; assay: Lipid droplet formation in human liver cancer cells, Oil Red staining; assay type: cell-based; conditions: HepG2, 24 h treatment, FIG. 3
Experimental: as §1
0.5 g of pre-ground and pre-crushed dried Oil Red powder (purchased from Sigma Company) is weighed, and dissolved in a small amount of isopropanol. Then isopropanol is added to reach 100 ml. A solution is sealed in a brown bottle (or packaged with tin foil paper for avoiding light) for preservation at 4° C. as a storage solution, which may be preserved for a long time. When using, 6 ml of the solution is taken, and 4 ml of tri-distilled water is added to be evenly mixed. The mixed solution is filtered by qualitative filter paper into a working solution, which is used up within a few hours after diluted. An overnight human liver cancer HepG2 cell line is cultivated by a 10% FBS medium. Pancreatin is added for digestion to form a cell suspension, which is inoculated onto a 24-well plate according to an appropriate concentration. After 24 h, the RA-XII is added for treatment for 24 h. A cultivation solution is poured out carefully and slowly. Fixing is then conducted with 4% paraformaldehyde for 30 min. Staining is conducted with an Oil Red working solution for about 30 min at the room temperature. Washing is conducted with PBS twice. Pictures are taken under a microscope.

[7] = test system: tissues of HepG2 subcutaneously transplanted tumors; assay: Indexes related to lipid metabolism in tissues of subcutaneously transplanted tumors; assay type: in vivo, BABL/c nude mice; conditions: tumor tissues from Embodiment 4, RIPA lysate, FIG. 5
Experimental: as §2
Tissues of the tumors obtained in Embodiment 4 are taken and lysed with an RIPA lysate. Then contents of cholesterol, triglycerides, low-density lipoproteins and high-density lipoproteins are detected by adopting commercial kits (specific methods are the same as Embodiment 2).

SMILES	high-density lipoproteins content in cells [1]	low-density lipoproteins content in cells [1]	total cholesterol content in cells [1]	triglycerides content in cells [1]	growth speed of subcutaneously transplanted tumors (tumor volume) [2]	proliferation of tumor cells (cell viability, SRB) [3]	weights of the nude mice [4]	number of lipid droplets in tumor tissues [5]	number of lipid droplets in tumor cells [6]	high-density lipoproteins in tumor tissues [7]	low-density lipoproteins in tumor tissues [7]	total cholesterol in tumor tissues [7]	triglycerides in tumor tissues [7]
COc1ccc(C[C@H]2C(=O)N[C@@H](C)C(=O)N(C)C3Cc4ccc(cc4)Oc4cc(ccc4O)C[C@@H](C(=O)N[C@H](C)C(=O)N[C@@H](C)C(=O)N2C)N(C)C3=O)cc1 [RA-V]	no obvious influence	obviously inhibit expression	obviously inhibit expression	obviously inhibit expression									
COc1ccc(C[C@H]2C(=O)N[C@@H](C)C(=O)N(C)C3Cc4ccc(cc4)Oc4cc(ccc4O[C@@H]4OC(CO)[C@@H](O)[C@H](O)C4O)C[C@@H](C(=O)N[C@H](C)C(=O)N[C@@H](C)C(=O)N2C)N(C)C3=O)cc1 (some centres unmarked) [RA-XII]	no obvious influence	obviously inhibit expression	obviously inhibit expression	obviously inhibit expression	obviously reduce a growth speed	inhibits rapid proliferation of tumor cells	no obvious influence	obviously reduce the number of the lipid droplets	obviously reduce the number of the lipid droplets	no obvious influence	obviously inhibit expression	obviously inhibit expression	obviously inhibit expression
